According to patent US7572770B2, “Use of an interleukin 1 receptor antagonist and/or pyrrolidinedithiocarbamate for the treatment or prophylaxis of type 2 diabetes” (University of Zurich, priority 2002, dated 2009):

Assays:
IL-1Ra = IL-1Ra release and mRNA in human blood monocytes; assay type: cell-based; settings: leptin, 15 and 48 hours
Protocol: Human blood monocytes were isolated as described previously (37), cultured in RPMI 1640 (Invitrogen) containing 100 U/ml penicillin, 100 μg/ml streptomycin and 10% fetal calf serum and exposed to 10 or 500 nM leptin.
RNA extraction and RT-PCR. Islets were cultured in a suspension as described above. Total RNA was extracted using Rneasy mini kit (Qiagen, Basel, Switzerland) and RT-PCR was performed using the Superscript™ II Rnase H-Reverse transcriptase kIT and oligo (dT) (7) (Life technologies, Gaithersburg, Md., USA) according to the instructions from the manufacturers. The following primers were used: 5′[…]3′(SEQ ID. NO. 1)/5′[…]3′ (human IL-1Ra) (SEQ ID.NO. 2) and 5′[…]3′(SEQ ID. NO. 3)/5′[…]3′ (human IL-1β) (SEQ ID. NO. 4). PCR conditions were: denaturation for 30 seconds at 94° C., annealing for 30 seconds at 60° C., and elongation for 30 seconds at 72° C., followed for real time PCR by quantification for 5 seconds at 82° C.; repetition for 40 cycles. Saturation of PCR product occurred between 19 and 33 cycles. […] For quantitative analysis, we used the LightCycler quantitative PCR system (Roche) and performed quantitative PCR with a commercial kit (LightCycler-DNA Master SYBR Green I; Roche). […]
Cytokine release. Cytokine release was evaluated in the culture medium collected before the termination of each experiment using human IL-1β and IL-1Ra ELISA kits (R&D Systems Inc.).

human islets β-cells = assay: β-cell apoptosis (TUNEL) and necrosis (propidium iodide) in human islets; assay type: cell-based; settings: 4 days
Protocol: Islet isolation and culture. Islets were isolated from pancreases of eleven organ donors at the Department of Surgery, University of Geneva Medical Center, as described (32-34). The islet purity was >95%, as judged by dithizone staining (if this degree of purity was not primarily achieved by routine isolation, islets were handpicked). […] For long-term in vitro studies, the islets were cultured on extracellular matrix-coated plates derived from bovine corneal endothelial cells (Novamed Ltd., Jerusalem, Israel), allowing the cells to attach to the dishes and spread, preserving their functional integrity (7;35). Islets were cultured in CMRL 1066 medium containing 100 U/ml penicillin, 100 μg/ml streptomycin and 10% fetal calf serum (Gibco, Gaithersburg, Md.), hereinafter referred to as culture medium. Two days after plating, when most islets were attached and began to flatten, the medium was changed to culture medium containing 5.5, 11.1 or 33.3 mM glucose. In some experiments, islets were additionally cultured with 2 ng/ml recombinant human IL-1β, 1000 U/ml recombinant human IFNγ (ReproTech EC Ltd, London, UK), 500 ng/ml IL-1β receptor antagonist (IL-1Ra) (R&D Systems Inc., Minneapolis, Minn.), 1 ng/ml membrane bound Fas-ligand (FasL) (36) (upstate biotechnology, Lake Placid, N.Y.) or with 100 μM pyrrolidinedithiocarbamate (PDTC; Sigma; 2 h per 2 d of culture).
β-cell apoptosis. The free 3-OH strand breaks resulting from DNA degradation were detected by the terminal deoxynucleotidyl transferase-mediated dUTP nick-end labeling (TUNEL) technique (38). After washing with PBS, cultured islets were fixed in 4% paraformaldehyde (30 min, room temperature) followed by permeabilisation with 0.5% triton X-100 (4 min, room temperature). The TUNEL assay was performed according to the manufacturer's instructions (In Situ Cell Death Detection Kit, AP; Boehringer Mannheim, Germany). […] The samples were immediately evaluated by fluorescence microscopy for positively stained […] nuclei.

Substance | IL-1Ra release and mRNA in peripheral blood monocytes (IL-1Ra) | baseline apoptosis (TUNEL-positive β-cells) (human islets β-cells; 5.5 mM glucose) | glucose-induced β-cell apoptosis / DNA fragmentation (TUNEL) (human islets β-cells; 33.3 mM glucose, with IL-1Ra 500 ng/ml or PDTC 100 μM)
leptin: rh leptin (PeproTech); protein encoded by the ob gene | A similar dual effect | – | –
Interleukin 1 receptor antagonist [IL-1Ra] | – | did not significantly change baseline apoptosis | protected the β-cells from apoptosis
